Species on record: Rattus norvegicus
Test: Open TG-GATES - Regimen: Daily Repeat
Type: toxicity, organism-based, Sprague-Dawley
Set-up: regimen Daily Repeat, gender Male, age 6 weeks
Conditions: in vivo, po, 10 mg/kg, route gavage, dose level Middle; for APTT / Bas / Eos / Fbg / Hb / Ht / Lym / MCH / MCHC / MCV / Mono / Neu / PT / Plat / RBC / Ret / WBC: tissue Blood; for KIDNEY_L / KIDNEY_R / KIDNEY_TOTAL: tissue Kidney; for LIVER: tissue Liver; for A/G / ALP / ALT / AST / BUN / CRE / Ca / Cl / DBIL / GLC / IP / K / LDH / Na / PL / RALB / TBIL / TC / TG / TP / gamma-GTP: tissue Plasma

Cn1cnc([N+](=O)[O-])c1Sc1ncnc2nc[nH]c12 [AZATHIOPRINE]
TERMINAL_BW (72 h, time 3 day): 204.1 g | APTT (72 h, time 3 day): 20.4 s | Bas (72 h, time 3 day): 0% | Eos (72 h, time 3 day): 0.8% | Fbg (72 h, time 3 day): 324.8 mg/dL | Hb (72 h, time 3 day): 13.4 g/dL | Ht (72 h, time 3 day): 39.3% | Lym (72 h, time 3 day): 83.6% | MCH (72 h, time 3 day): 21.4 pg | MCHC (72 h, time 3 day): 33.9% | MCV (72 h, time 3 day): 62.9 fL | Mono (72 h, time 3 day): 2% | Neu (72 h, time 3 day): 12.4% | PT (72 h, time 3 day): 15.7 s | Plat (72 h, time 3 day): 125.8 x10_4/uL | RBC (72 h, time 3 day): 625.6 x10_4/ul | Ret (72 h, time 3 day): 5.2% | WBC (72 h, time 3 day): 72.4 x10_2/uL | KIDNEY_L (72 h, time 3 day): 0.9 g | KIDNEY_R (72 h, time 3 day): 0.9 g | KIDNEY_TOTAL (72 h, time 3 day): 1.9 g | LIVER (72 h, time 3 day): 9.8 g | A/G (72 h, time 3 day): 1.2 | ALP (72 h, time 3 day): 1704 IU/L | ALT (72 h, time 3 day): 41.4 IU/L | AST (72 h, time 3 day): 73 IU/L | BUN (72 h, time 3 day): 16.2 mg/dL | CRE (72 h, time 3 day): 0.1 mg/dL | Ca (72 h, time 3 day): 11.2 mg/dL | Cl (72 h, time 3 day): 106.2 meq/L | DBIL (72 h, time 3 day): 0 mg/dL | GLC (72 h, time 3 day): 184.8 mg/dL | IP (72 h, time 3 day): 7.2 mg/dL | K (72 h, time 3 day): 4.2 meq/L | LDH (72 h, time 3 day): 196.8 IU/L | Na (72 h, time 3 day): 143 meq/L | PL (72 h, time 3 day): 148.2 mg/dL | RALB (72 h, time 3 day): 3.1 g/dL | TBIL (72 h, time 3 day): 0.014 mg/dL | TC (72 h, time 3 day): 77.4 mg/dL | TG (72 h, time 3 day): 85.2 mg/dL | TP (72 h, time 3 day): 5.7 g/dL | gamma-GTP (72 h, time 3 day): 1 IU/L | TERMINAL_BW ([…], time 7 day): 234.4 g | TERMINAL_BW ([…], time 14 day): 294.1 g | TERMINAL_BW ([…], time 28 day): 329.3 g | APTT ([…], time 7 day): 22.4 s | Bas ([…], time 7 day): 0% | Eos ([…], time 7 day): 1% | Fbg ([…], time 7 day): 325.8 mg/dL | Hb ([…], time 7 day): 13.7 g/dL | Ht ([…], time 7 day): 39% | Lym ([…], time 7 day): 83% | MCH ([…], time 7 day): 21.5 pg | MCHC ([…], time 7 day): 35.1% | MCV ([…], time 7 day): 61.5 fL | Mono ([…], time 7 day): 2.4% | Neu ([…], time 7 day): 12.4% | PT ([…], time 7 day): 15.4 s | Plat ([…], time 7 day): 143.7 x10_4/uL | RBC ([…], time 7 day): 635 x10_4/ul | Ret ([…], time 7 day): 6.2% | WBC ([…], time 7 day): 81.7 x10_2/uL | APTT ([…], time 14 day): 21.7 s | Bas ([…], time 14 day): 0% | Eos ([…], time 14 day): 0.6% | Fbg ([…], time 14 day): 333 mg/dL | Hb ([…], time 14 day): 14 g/dL | Ht ([…], time 14 day): 40.1% | Lym ([…], time 14 day): 81.4% | MCH ([…], time 14 day): 21.1 pg | MCHC ([…], time 14 day): 35% | MCV ([…], time 14 day): 60.3 fL | Mono ([…], time 14 day): 1.6% | Neu ([…], time 14 day): 14.8% | PT ([…], time 14 day): 15.6 s | Plat ([…], time 14 day): 116.8 x10_4/uL | RBC ([…], time 14 day): 664.6 x10_4/ul | Ret ([…], time 14 day): 4.2% | WBC ([…], time 14 day): 93.4 x10_2/uL | APTT ([…], time 28 day): 22.4 s | Bas ([…], time 28 day): 0% | Eos ([…], time 28 day): 1.4% | Fbg ([…], time 28 day): 347.6 mg/dL | Hb ([…], time 28 day): 11.8 g/dL | Ht ([…], time 28 day): 34.5% | Lym ([…], time 28 day): 74% | MCH ([…], time 28 day): 19.3 pg | MCHC ([…], time 28 day): 33.9% | MCV ([…], time 28 day): 56.9 fL | Mono ([…], time 28 day): 3.2% | Neu ([…], time 28 day): 19.4% | PT ([…], time 28 day): 16.5 s | Plat ([…], time 28 day): 95.9 x10_4/uL | RBC ([…], time 28 day): 615.2 x10_4/ul | Ret ([…], time 28 day): 2.4% | WBC ([…], time 28 day): 54.1 x10_2/uL | KIDNEY_L ([…], time 7 day): 1 g | KIDNEY_R ([…], time 7 day): 1 g | KIDNEY_TOTAL ([…], time 7 day): 2 g | KIDNEY_L ([…], time 14 day): 1.1 g | KIDNEY_R ([…], time 14 day): 1.2 g | KIDNEY_TOTAL ([…], time 14 day): 2.3 g | KIDNEY_L ([…], time 28 day): 1.3 g | KIDNEY_R ([…], time 28 day): 1.3 g | KIDNEY_TOTAL ([…], time 28 day): 2.6 g | LIVER ([…], time 7 day): 11.1 g | LIVER ([…], time 14 day): 13.4 g | LIVER ([…], time 28 day): 13.3 g | A/G ([…], time 7 day): 1.1 | ALP ([…], time 7 day): 1444.2 IU/L | ALT ([…], time 7 day): 37.8 IU/L | AST ([…], time 7 day): 69.8 IU/L | BUN ([…], time 7 day): 18.2 mg/dL | CRE ([…], time 7 day): 0.1 mg/dL | Ca ([…], time 7 day): 10.7 mg/dL | Cl ([…], time 7 day): 105.8 meq/L | DBIL ([…], time 7 day): 0 mg/dL | GLC ([…], time 7 day): 193.2 mg/dL | IP ([…], time 7 day): 6.8 mg/dL | K ([…], time 7 day): 4.2 meq/L | LDH ([…], time 7 day): 265.2 IU/L | Na ([…], time 7 day): 142.8 meq/L | PL ([…], time 7 day): 166.4 mg/dL | RALB ([…], time 7 day): 3.1 g/dL | TBIL ([…], time 7 day): 0 mg/dL | TC ([…], time 7 day): 89.4 mg/dL | TG ([…], time 7 day): 104.6 mg/dL | TP ([…], time 7 day): 6 g/dL | gamma-GTP ([…], time 7 day): 1 IU/L | A/G ([…], time 14 day): 1.1 | ALP ([…], time 14 day): 1327.6 IU/L | ALT ([…], time 14 day): 33.4 IU/L | AST ([…], time 14 day): 62.8 IU/L | BUN ([…], time 14 day): 17.8 mg/dL | CRE ([…], time 14 day): 0.2 mg/dL | Ca ([…], time 14 day): 11.3 mg/dL | Cl ([…], time 14 day): 105.2 meq/L | DBIL ([…], time 14 day): 0 mg/dL | GLC ([…], time 14 day): 200.2 mg/dL | IP ([…], time 14 day): 6.8 mg/dL | K ([…], time 14 day): 4 meq/L | LDH ([…], time 14 day): 161 IU/L | Na ([…], time 14 day): 143 meq/L | PL ([…], time 14 day): 174.4 mg/dL | RALB ([…], time 14 day): 3.2 g/dL | TBIL ([…], time 14 day): 0.006 mg/dL | TC ([…], time 14 day): 93.8 mg/dL | TG ([…], time 14 day): 93.4 mg/dL | TP ([…], time 14 day): 6.2 g/dL | gamma-GTP ([…], time 14 day): 1.8 IU/L | A/G ([…], time 28 day): 1.1 | ALP ([…], time 28 day): 971.6 IU/L | ALT ([…], time 28 day): 82 IU/L | AST ([…], time 28 day): 182.8 IU/L | BUN ([…], time 28 day): 20.8 mg/dL | CRE ([…], time 28 day): 0.2 mg/dL | Ca ([…], time 28 day): 10.7 mg/dL | Cl ([…], time 28 day): 107 meq/L | DBIL ([…], time 28 day): 0.034 mg/dL | GLC ([…], time 28 day): 169.4 mg/dL | IP ([…], time 28 day): 6.3 mg/dL | K ([…], time 28 day): 3.9 meq/L | LDH ([…], time 28 day): 602 IU/L | Na ([…], time 28 day): 141.4 meq/L | PL ([…], time 28 day): 169.6 mg/dL | RALB ([…], time 28 day): 3.3 g/dL | TBIL ([…], time 28 day): 0.066 mg/dL | TC ([…], time 28 day): 102 mg/dL | TG ([…], time 28 day): 63.4 mg/dL | TP ([…], time 28 day): 6.4 g/dL | gamma-GTP ([…], time 28 day): 1.2 IU/L

— ChEMBL document CHEMBL3885861, “Open TG-GATES”
